{"source": "patent US20240415785A1", "about": "“USE OF D-ARABITOL IN LIPID-LOWERING AND HEPATOPROTECTION” (NANJING UNIVERSITY OF CHINESE MEDICINE, priority 2022, published 2024)", "type_in_all_cases": "in vivo", "key": {"[1]": {"test_system": "C57 BL/6 J male mice with the high-fat diet", "assay": "Body weight ratio of mice with the high-fat diet", "details": "high-fat feed, 12 weeks, compared with model group", "method": "(§1) D-arabitol, L-arabitol, L-arabinose, D-arabinose, and D-xylitol each were prepared with sterile distilled water into a 50 g/L or 20 g/L solution.\n(§2) A total of 64 SPF-grade 8-week-old C57 BL/6 J male mice were adaptively raised for 3 d with a normal diet in a barrier facility having an independently-ventilated cage (IVC), tested for an initial body weight, and randomly divided into 8 groups. On day 4, the mice in the 8 groups were administered with a normal feed or a high-fat feed, and drinking water for mice in an administration group was replaced with drug-containing water. Each mouse had free access to food and drinking water, and a body weight was recorded weekly. The grouping, diets, and administration were as follows: • (1) normal diet group (Chow): normal feed+sterile distilled water; • (2) high-fat diet group (HFD): high-fat feed+sterile distilled water; • (3) 50 g/L L-arabitol group (HFD+50 g/L L-Arabitol): high-fat feed+50 g/L L-arabitol; • (4) 20 g/L D-arabitol group (HFD+20 g/L D-Arabitol): high-fat feed+20 g/L D-arabitol; • (5) 50 g/L D-arabitol group (HFD+50 g/L D-Arabitol): high-fat feed+50 g/L D-arabitol; • (6) 50 g/L L-arabinose group (HFD+50 g/L L-Arabinose): high-fat feed+50 g/L L-arabinose; • (7) 50 g/L D-arabinose group (HFD+50 g/L D-Arabinose): high-fat feed+50 g/L D-arabinose; and • (8) 50 g/L xylitol group (HFD+50 g/L Xylitol): high-fat feed+50 g/L xylitol.\nMouse body weight ratio: a body weight at the nth week (g)×100%/an initial body weight (g). Data was subjected to statistical tests with Graphpad Prism v9.0. Two-way ANOVA and Tukey's multiple comparison tests were adopted for body weight data, and one-way ANOVA and Dunnett's multiple comparison tests were adopted for other data."}, "[2]": {"test_system": "C57 BL/6 J male mice with the high-fat diet", "assay": "Blood lipid levels (total TG, LDL-c, HDL-c) in serum of mice with the high-fat diet", "details": "high-fat feed, compared with high-fat diet group", "method": "as §1, §2\n(§3) At the end of the experiment, each mouse was anesthetized by intraperitoneal injection of sodium pentobarbital with a concentration of 5 mg/mL, the injection volume was 0.1 mL/10 g, and the injection dose was 50 mg/kg, and then blood was collected from the orbit. The mouse was sacrificed through cervical dislocation, and a liver was collected, rinsed with normal saline, and dried with a filter paper. A liver lobe was taken and fixed in paraformaldehyde. The remaining liver was quickly frozen with liquid nitrogen, and stored at −80° C. The blood was allowed to stand for 30 min and then centrifuged at 3,500 rpm for 10 min to obtain a supernatant, and the supernatant was collected and stored at −80° C.\nA serum sample was taken, thawed at 4° C., and tested for serum HDL-c, LDL-c, total TG, ALT, and aspartate aminotransferase (AST) according to instructions of kits."}, "[3]": {"test_system": "C57 BL/6 J male mice with the high-fat diet", "assay": "Liver histopathology (H&E staining) of mice with the high-fat diet", "details": "high-fat feed", "method": "as §1, §2, §3\nA liver tissue that had been fixed with 4% paraformaldehyde was taken and subjected to gradient dehydration in the dehydrator as follows: in 75% ethanol for 4 h, in 85% ethanol for 2 h, in 90% ethanol for 2 h, in 95% ethanol for 1 h, in absolute ethanol I for 30 min, and in absolute ethanol II for 30 min. A tissue obtained after complete dehydration was permeabilized 1 time with a mixed solution of absolute ethanol and xylene mixed in equal volumes, and then permeabilized 2 times with pure xylene for about 5 min to 10 min each time. […]"}, "[4]": {"test_system": "C57 BL/6 J male mice with the high-fat diet", "assay": "Total cholesterol (TC) level in liver of mice with the high-fat diet", "details": "high-fat feed 12 weeks, compared with high-fat diet group", "method": "as §1\nas §2, with “xylitol. […]” for “xylitol.”"}, "[5]": {"test_system": "patient with a high blood or liver lipid level", "assay": "Lipid-lowering method in patient or individual with a high blood or liver lipid level", "description": "A lipid-lowering method was provided, including: a drug was orally administered to or injected into a patient with a high blood or liver lipid level, where an active ingredient of the drug was D-arabitol.\nA lipid-lowering method was provided, including: an individual with a high blood or liver lipid level was allowed to take a health care product or a food, where the health care product or the food included D-arabitol as an active ingredient."}, "[6]": {"test_system": "C57 BL/6 J male mice with the high-fat diet", "assay": "Serum ALT level of mice with the high-fat diet", "details": "high-fat feed 12 weeks, compared with high-fat diet group", "method": "as §1\nas §2, with “xylitol. […]” for “xylitol.”"}, "[7]": {"test_system": "patient with a liver damage caused by a high blood or liver lipid level", "assay": "Hepatoprotection method in patient or individual with a liver damage caused by a high blood or liver lipid level", "description": "A hepatoprotection method was provided, including: a drug was orally administered to or injected into a patient with a liver damage caused by a high blood or liver lipid level, where an active ingredient of the drug was D-arabitol.\nA hepatoprotection method was provided, including: an individual with a liver damage caused by a high blood or liver lipid level was allowed to take a health care product or a food, where the health care product or the food included D-arabitol as an active ingredient."}}, "data": [{"smiles": "O=C[C@@H](O)[C@H](O)[C@H](O)CO", "note": "[D-arabinose]", "values": [{"measurement": "body weight ratio", "setting": "[1]; 50 g/L in drinking water", "value": "did not have an effect of making a body weight ratio of mice significantly decrease"}]}, {"smiles": "OC[C@@H](O)C(O)[C@H](O)CO", "note": "[D-arabitol]", "values": [{"measurement": "HDL-c concentration in serum", "setting": "[2]; 20 g/L in drinking water", "value": "significantly reduce"}, {"measurement": "LDL-c concentration in serum", "setting": "[2]; 20 g/L in drinking water", "value": "significantly reduce"}, {"measurement": "HDL-c concentration in serum", "setting": "[2]; 50 g/L in drinking water", "value": "significantly reduce"}, {"measurement": "LDL-c concentration in serum", "setting": "[2]; 50 g/L in drinking water", "value": "significantly reduce"}, {"measurement": "total TG in serum", "setting": "[2]; 50 g/L in drinking water", "value": "decreased significantly"}, {"measurement": "body weight ratio", "setting": "[1]; 20 g/L in drinking water", "value": "start to significantly decrease from week 8"}, {"measurement": "body weight ratio", "setting": "[1]; 50 g/L in drinking water", "value": "start to significantly decrease from week 4"}, {"measurement": "white vacuoles (lipid droplets) in the liver tissue, H&E staining", "setting": "[3]; 20 g/L in drinking water", "value": "no obvious white vacuoles"}, {"measurement": "white vacuoles (lipid droplets) in the liver tissue, H&E staining", "setting": "[3]; 50 g/L in drinking water", "value": "no obvious white vacuoles"}, {"measurement": "accumulation of TC in the liver", "setting": "[4]; 20 g/L in drinking water", "value": "significantly reduce"}, {"measurement": "accumulation of TC in the liver", "setting": "[4]; 50 g/L in drinking water", "value": "significantly reduce"}, {"measurement": "blood or liver lipid level in the patient", "setting": "[5]; drug orally administered or injected, patient with a high blood or liver lipid level (Example 2)", "value": "decreased effectively"}, {"measurement": "blood or liver lipid level in the individual", "setting": "[5]; health care product or food taken by individual with a high blood or liver lipid level (Example 4)", "value": "decreased effectively"}, {"measurement": "serum ALT concentration", "setting": "[6]; 20 g/L in drinking water", "value": "significantly reduce"}, {"measurement": "serum ALT concentration", "setting": "[6]; 50 g/L in drinking water", "value": "significantly reduce"}, {"measurement": "liver function in the patient", "setting": "[7]; drug orally administered or injected, patient with a liver damage caused by a high blood or liver lipid level (Example 3)", "value": "improved effectively"}, {"measurement": "liver function in the individual", "setting": "[7]; health care product or food taken by individual with a liver damage caused by a high blood or liver lipid level (Example 5)", "value": "improved effectively"}]}, {"smiles": "O=C[C@H](O)[C@@H](O)[C@@H](O)CO", "note": "[L-arabinose]", "values": [{"measurement": "body weight ratio", "setting": "[1]; 50 g/L in drinking water", "value": "did not have an effect of making a body weight ratio of mice significantly decrease"}]}, {"smiles": "OC[C@H](O)C(O)[C@@H](O)CO", "note": "[L-arabitol, reference compound]", "values": [{"measurement": "body weight ratio", "setting": "[1]; 50 g/L in drinking water", "value": "did not have an effect of making a body weight ratio of mice significantly decrease"}, {"measurement": "liver cell structures, H&E staining (liver damage)", "setting": "[3]; 50 g/L in drinking water", "value": "liver cell structures disappeared"}, {"measurement": "white vacuoles (lipid droplets) in the liver tissue, H&E staining", "setting": "[3]; 50 g/L in drinking water", "value": "no significant white vacuoles"}]}, {"smiles": "OC[C@@H](O)[C@H](O)[C@@H](O)CO", "note": "[xylitol, Xylitol]", "values": [{"measurement": "body weight ratio", "setting": "[1]; 50 g/L in drinking water", "value": "did not have an effect of making a body weight ratio of mice significantly decrease"}]}]}
